Key:
control cells (4513) = assay: Cholesterol synthesis from 3H-mevalonate in control lymphoblasts; format: cell-based, human; conditions: 16 h
Protocol: (§1) FIG. 12. Increased free cholesterol synthesis in HSN cells. In order to investigate whether increased SRE-mediated gene transcription also results in increased cholesterol synthesis cells were incubated with radioactive mevalonate, a precursor which represents a committed step in cholesterol synthesis (see FIG. 11). Control and HSN1 cells were incubated for 7 h and 18 h in the presence of trace amounts of ^3H-mevalonate. Lipids were extracted and separated by thin […] chromatography (TLC). Radioactive counts in the cholesterol fraction were analyzed by liquid scintillation counting.
(§2) FIG. 16. Incubation with mevastatin decreases free cholesterol synthesis in HSN cells as well as in controls. Cells were treated for 16 h in the presence of ^3H-mevalonate to assess cholesterol de novo synthesis and several inhibitors of either cholesterol or ceramide synthesis (Mevastatin=Statin), C6 ceramide (previously shown by us to decreased SREBP levels and SRE-mediated gene transcription), cycloserine (inhibitor of serine-palmiltoyl transferase), cholesterol (classical inhibitor of de novo synthesis by negative feedback).

HSN1 cells (4561) = assay: Cholesterol / cholesterylester synthesis from 3H-mevalonate in HSN1 cells; format: cell-based, human
Protocol: as §1
FIG. 14. Oleic acid increases HSN 4561 synthesis of high levels of free cholesterol but not cholesteryl ester. Cells were incubated for 4 h with ^3H-mevalonate and grown in the presence or absence of 0.3 mM oleic acid.
as §2

NPA fibroblasts = assay: SRE-promoter reporter (adenoviral transfection) in NPA fibroblasts; format: cell-based; conditions: addition of cholesterol; reversible on switch to BSA
Protocol: FIG. 20. SRE-mediated gene transcription is increased in NPA fibroblasts. The hypothesis was evaluated that increased ceramide de novo synthesis affects SREBP and SRE-mediated gene transcription in Niemann Pick Type A cells. Cells were transfected with an SRE-promoter construct (using adenoviral transfection as above in HSN cells). […] Addition of cholesterol decreases SRE-mediated gene transcription and this process is also reversible.

[1] = system: Niemann Pick Disease Type A fibroblasts; assay: Ceramide de novo synthesis (3H-serine) in NPA fibroblasts; format: cell-based; conditions: overnight incubation with agent, vs 1% BSA
Protocol: FIG. 19. Ceramide synthesis is increased in NPA fibroblasts. Fibroblasts from different control individuals and from two different cell lines derived from Niemann Pick Disease Type A were incubated for 4 h in the presence of ^3H-serine to measure de novo ceramide synthesis after having been incubated overnight in either control medium (1% BSA) or in the presence of cholesterol or C8-Ceramide. Lipid extraction and separation were carried out.

[2] = system: SRE-mediated gene transcription; assay: SRE-promoter luciferase reporter gene assay in LY-B cells (CHO cells mutated in LCB1 subunit of serine-palmitoyl transferase); format: cell-based, Chinese hamster; conditions: cholesterol 10 μg/ml and 25-OH cholesterol 1 μg/ml, 16 h
Protocol: (§3) FIG. 5. LY-B cells fail to recover SRE-mediated gene transcription in cholesterol depletion but recover SRE-mediated gene transcription in the presence of DMS. […] Both cell lines have been transfected to stably express an SRE-promoter construct linked to the luciferase reporter gene. On day 2, cells were incubated for 16 h with 1% BSA (control) or in the presence of cholesterol (10 μg/ml) and 25-OH cholesterol (1 μg/ml) to decrease SRE-mediated gene transcription. Then, incubation medium was switched to 1% BSA or DMS (5 μM) for 6 h. After cell lysis, luciferase activity was analyzed, expressed as a ratio of protein content. Data represent the average (±S.D.) of at least 4 different experiments, each performed in triplicate.
Enzyme assays: Cells to be analyzed for luciferase activity were lyzed in lysis buffer A containing 0.1% Triton X-100, 50 mM Hepes, 10 mM MgSO4, pH 7.7. Cells were scraped, collected, vortexed and briefly centrifuged to pellet cell debris. An aliquot was used to measure luciferase activities in a luminometer (Berthold LB 9501, Wallac Inc., Gaithersburg, Md.) with a luciferin reagent from Promega (Madison, Wis.). Luciferase activity in relative light units (RLU) was divided by protein content (mg/ml) for each extract. […]

[3] = system: HSN1 lymphoblasts (HSN 4561); assay: SRE-promoter reporter (adenovirus transfection) in HSN1 lymphoblasts; format: cell-based, human; conditions: 7 h
Protocol: (§4) FIG. 10. Increased SRE-mediated gene transcription in HSN1 cells (HSN 4561). Cells were transfected with an SRE-element containing promoter-reporter gene. This construct is identical to the promoter-reporter gene used in all previous studies. In order to achieve transfection in lymphoblasts, this promoter construct was subcloned into an adenovirus vector. Cells (control lymphoblasts and HSN1 lymphoblasts) were transfected for 3 h with this adenovirus vector and left in growth medium overnight. Medium was then switched to experimental medium containing 1% fatty acid free BSA (control conditions) or cholesterol/25-OH cholesterol (10 ug/ml/1 ug/ml) or oleic acid. After 7 h the luciferase activity which reflects binding of SREBP to the SRE-promoter element was measured. Because adenovirus mediated transfections are transient transfections the necessity for a transfection control arises. The adenovirus vector contains a β-gal control gene that is not regulated by experimental conditions and serves as a transfection control (standard practice).

[4] = several animal studies; cited from earlier work
[5] = system: SRE-mediated gene transcription; assay: SRE-promoter luciferase reporter gene assay in stably transfected CHO cells; format: cell-based, Chinese hamster; conditions: for SRE-mediated gene transcription (luciferase RLU/protein): myriocin 1 μM, cycloserine 500 mM, fumonisin B1 10 μM, PPMP 20 μM, NB-DNJ 40 μM, cholesterol/25-OH cholesterol 10/1 μg/ml, vs 1% BSA
Protocol: FIG. 3. Inhibition of ceramide synthesis and SRE-mediated gene transcription. (A) Decreased ceramide synthesis correlates with decreased levels of SRE-mediated gene transcription and mSREBP. […] After cell lysis, luciferase activity was analyzed, and expressed as a ratio of protein content. Data represent the average (±S.D.) of at least 4 different experiments, each performed in triplicate. […] CHO cells stably transfected with an SRE-promoter construct linked to the luciferase reporter gene were incubated for 8 h in the presence of control conditions (1% BSA) or increasing levels of myriocin (0.25-1 μM). After cell lysis, luciferase activity was analyzed, expressed as a ratio of protein content. Data represent the average (±S.D.) of at least 3 different experiments, each performed in triplicate.
FIG. 4. Increased ceramide synthesis and SRE-mediated gene transcription. (A) Increased ceramide de novo synthesis correlates with increased SRE-mediated gene transcription. On day 1, CHO cells stably transfected with an SRE-promoter construct linked to the luciferase reporter gene were plated at 80% confluency. […] Cells were harvested, lysed and analyzed for luciferase activity (measured in relative light units, RLU) and protein content. Data are expressed as percentage of control and represent the average (±S.D.) of three different experiments, each performed in triplicate. Inset: Western blot analysis: On day 1, CHO cells were plated in regular growth medium. On day 2, cells were incubated for 8 h with control medium (1% BSA) or DMS (5 μM). Whole cell extracts (30 μg protein) were loaded on a 4-14% continuous gradient SDS-PAGE gel. P and M denote the precursor (125 kd) and mature (68 kd) form of SREBP-1 in a representative experiment. (B) DMS increases ceramide de novo synthesis. CHO cells were treated for 3.5 h either with control conditions (1% BSA) or DMS (2.5-5 μM). […] Data are expressed as dpm/protein and represent a typical experiment.
as §3
Cell culture and stable transfections: Cells were grown in F12-nutrient mixture medium containing 10% fetal bovine serum (FBS), 1% glutamine (v/v), 1% penicillin/streptomycin (v/v), and 10% fetal bovine serum (v/v) at 37° C. in humidified CO2 (5%). To obtain stable transfectants, cells were plated in 12-well plates at 50% confluency and transfected for 5 h in the presence of serum-free Dulbecco's modified Eagle's medium (DMEM) with pSyn SRE (1 μg/well) and pWLNeo (0.25 μg/well) using Lipofectamin (1.5 μl/well). Cells were then incubated for 2 days in growth medium. On day three, neomycin-containing medium (400 μg/ml) was added. Selection for neomycin resistant colonies was continued for three weeks. Pooled clones were analyzed for luciferase expression. Experiments were performed with pooled clones as well as with cells derived from a single clone. Cells were grown in the presence of 400 μg/ml neomycin. For experimental use, cells were plated in the absence of neomycin at least 24 h ahead in regular growth medium.
Enzyme assays: Cells to be analyzed for luciferase activity were lyzed in lysis buffer A containing 0.1% Triton X-100, 50 mM Hepes, 10 mM MgSO4, pH 7.7. Cells were scraped, collected, vortexed and briefly centrifuged to pellet cell debris. […]

[6] = rats fed toxic levels, 20 week study (ref. 8); cited from earlier work
[7] = system: control lymphoblasts (HSN 4513); assay: SRE-promoter reporter (adenovirus transfection) in control lymphoblasts; format: cell-based, human; conditions: oleic acid, 7 h
Protocol: as §4

[8] = system: cellular sphingomyelin levels; assay: Cellular sphingomyelin levels (TLC, phosphorus); format: cell-based; conditions: within 24 h; data not shown
Source text: An aliquot was used for luciferase and protein determination. […] Lipids were then dried under N2. […] Absolute cpm values range between 400 and 800 cpm. […] In brief, lipids were extracted as above. Lipid extracts were run on TLC.
What is the role of cellular sphingomyelin levels on SRE-mediated gene transcription? […] LY-B cells have decreased sphingomyelin levels. Yet, SRE-mediated gene transcription is decreased in LY-B cells as well as in myriocin treated cells.

HMG-CoA synthase mRNA = assay: Northern blot of HMG-CoA synthase mRNA in CHO cells; format: cell-based, Chinese hamster; conditions: myriocin 1 μM, 16 h
Protocol: CHO cells were incubated for 8 h with control medium (1% BSA) or myriocin (1 μM). 30 μg of total RNA were loaded per lane, electrophoresed on a 1.2% agarose/formaldehyde gel and transferred to a nylon membrane. The membrane was hybridized with ^32P-labeled probes for HMG-CoA synthase and glyceraldehyde-3-phosphate dehydrogenase (GAPDH) as outlined under “Experimental Details.” Lane 1: Control; lane 2: Myriocin (1 μM). The level of HMG-CoA synthase mRNA relative to control values was calculated after quantitative phosphorimager analysis and correction of loading differences determined by the glyceraldehyde-3-phosphate dehydrogenase signal.
Northern blots: CHO cells were plated on day 1 at 80% confluency and treated with the respective conditions for 8 h. Total RNA was isolated by Trizol reagent (Invitrogen, Grand Island, N.Y.) as described by the manufacturer. RNA concentration was calculated from optical density at 260 nm. 30 μg of total RNA were separated by 1.2% denaturing agarose/formaldehyde electrophoresis and transferred by capillary transfer to Duralon UV-membranes (Stratagene, La Jolla, Calif.). The cDNA probe for northern hybridization of HMG-CoA synthase was obtained by RT-PCR from human THP-1 macrophages mRNA using previously described primers (4). […]

SREBP = assay: Fluorescently labeled SREBP in cell culture after addition of DAG; format: cell-based; conditions: preliminary data in cell culture
Protocol: Data: Propanolol ([…]) inhibits SRE-mediated gene transcription to 40% (+3%) within 30 min. Resvaratrol ([…]) inhibits SRE-mediated gene transcription to 7% (±16%) within 4 h.
Preliminary data: Inhibition of PAP by propanolol or inhibition of PKD by resvaratrol both decrease SRE-mediated gene transcription. Addition of a DAG analogue that is exogenously added and thus distributes to membranes other than the Golgi results in reorientation of fluorescently labeled mature SREBP.

In the case of `CC[C@H](C)C(=O)O[C@H]1CCC=C2C=C[C@H](C)[C@H](CC[C@@H]3C[C@@H](O)CC(=O)O3)[C@H]21` [mevastatin], the “free cholesterol synthesis in controls” value (control cells (4513)) is reported as “decreases” and the “free cholesterol synthesis in HSN cells” value (HSN1 cells (4561); 16 h, 3H-mevalonate) is reported as “decreases”.

For `CC(C)CCC[C@@H](C)[C@H]1CC[C@H]2[C@@H]3CC=C4C[C@@H](O)CC[C@]4(C)[C@H]3CC[C@]12C` [cholesterol], the SRE-mediated gene transcription (NPA fibroblasts) was “decreases”, the “sensitivity of cholesterol de novo synthesis in HSN1 cells (4561) relative to control cells” value (HSN1 cells (4561); 16 h, 3H-mevalonate) was “more sensitive” and the “ceramide de novo synthesis (3H-serine, 4 h)” value [1] was “does not significantly decrease”. For the same compound, the “decrease of SRE-mediated gene transcription in LY-B cells compared to control cells” value [2] was “significantly stronger” and the “SRE-mediated gene transcription (luciferase/β-gal) in HSN 1 (4561)” value ([3]; cholesterol/25-OH cholesterol 10/1 ug/ml) was “very efficient in decreasing”.

For `CCCC[C@@H](C)[C@@H](OC(=O)C[C@@H](CC(=O)O)C(=O)O)[C@H](C[C@@H](C)C[C@H](O)CCCC[C@@H](O)C[C@H](O)[C@H](C)N)OC(=O)C[C@@H](CC(=O)O)C(=O)O` [fumonisin B1], the hepatotoxicity [4] is given as “hepatotoxicity”, the “SRE-mediated gene transcription (luciferase RLU/protein)” value ([5]; 8 h) is given as “significantly reduced” and the plasma cholesterol levels [6] is given as “significantly decreased”.

In the case of `CCCCCCCC/C=C\CCCCCCCC(=O)O` [Oleic acid], the “synthesis of cholesterol from 3H-mevalonate” value (HSN1 cells (4561); HSN 4561, 0.3 mM oleic acid, 4 h) is reported as “stimulates”, the “SRE-mediated gene transcription (luciferase/β-gal) in controls” value [7] is reported as “does not decrease” and the “SRE-mediated gene transcription (luciferase/β-gal) in HSN 1 (4561)” value ([3]; oleic acid) is reported as “does not decrease”.

For `CCCCCCC(=O)CCCCCC/C=C/C[C@@H](O)[C@H](O)[C@@](N)(CO)C(=O)O` [myriocin], the cellular sphingomyelin levels [8] was “does not change”, the “SRE-mediated gene transcription (luciferase RLU/protein)” value ([5]; 8 h) was “significantly reduced” and the “expression of another control β-gal reporter gene” value ([5]; data not shown) was “did not decrease”. For the same compound, the “SRE-mediated gene transcription, dose dependence” value ([5]; myriocin 0.25-1 μM, 8 h) was “dose-dependently decreases” and the “HMG-CoA synthase mRNA levels relative to control” value (HMG-CoA synthase mRNA) was “half”.

For diacylglycerol [DAG], the “effect on fluorescently labeled SREBP” value (SREBP) was “attracts fluorescently labeled SREBP”.
